Test results reported in patent publication US20150050301A1, “Contiguous Overlapping Peptides for Treatment of House Dust Mites Allergy” (ANERGIS S.A., priority 2013, published 2015).
Where two headings read alike, the source gives them in different places. Residues, ends and D or L forms follow the SMILES beside them. No end group written: not given here.

B1: SQHGCHGDTIPRGIEYIQHNGVVQESYYRYVAREQSCRRPNAQRFGISNYCQIYPPNVNKIREALAQTHSAIAVIIGIKDLDAFRH (peptide)
peptide: SQHGCHGDTIPRGIEYIQHNGVVQESYYRYVAREQSCRRPNAQRFGISNYCQIYPPNVNKIREALAQTHSAIAVIIGIKDLDAFRH
B2: TNACSINGNAPAEIDLRQMRTVTPIRMQGGCGSCWAFSGVAATESAYLAYRNQSLDLAEQELVDCASQHGCHGDTIPRGIE (peptide, listed as Dermatophagoides pteronyssinus)
chain: TNACSINGNAPAEIDLRQMRTVTPIRMQGGCGSCWAFSGVAATESAYLAYRNQSLDLAEQELVDCASQHGCHGDTIPRGIE
notes: Der p 1 contiguous overlapping peptide, 81AA

Legend:
[1] = Solubility Characteristics of COPs; assay type: physicochemical
Procedure: All COPs were synthesized by solid phase fmoc chemistry at research scale to allow determination of IgE binding. […] Peptides were resuspended either in water at 2 mg/ml or at 10 to 20 mg per ml in DMSO (see Table 1) and frozen in aliquots.

[2] = test system: IgE of sera of house dust mite allergic patients binding to nDer p 1; assay: Competition ELISA on Der p 1 coated plates; parameters: species or system human; details: for effect of denaturing salts on IgE binding (Der p 1 competition ELISA): denaturing salts incl. guanidinium chloride or urea, 30 min pre-incubation with 1M guanidinium chloride; for IgE binding in competition ELISA (Der p 1): sera from patients allergic to house dust mites, COPs 10^−5 to 10^−10 M
Procedure: Purified Der p 1 or Der p 2 at 1.0 μg/ml were coated overnight on 96-well Nunc Maxisorp® immunoplates (Thermo Fisher Scientific Inc., Wohlen, Switzerland). After blocking with 1% BSA, either twenty-fold, thirty-fold or forty-fold up to 200-fold dilutions of patient serum were added depending on specific IgE content. […] Sera of allergic patients were obtained from US and Europe (PlasmaLab International, Everett, Wash., USA and Biomnis, Lyon, France) respectively) selected for positive CAP for D. pteronyssinus and clear signal over background and used to test for competition with the peptides. Serial dilutions of each set of COPs, namely for Der p 1 Set A, B, C or D and for Der p 2 mixes D, E or F at concentrations ranging from 10^−5 to 10^−10 M were pre-incubated with selected serums for 15 min. on ice.

Row | Molecule | Conc. ([1]; Solvent H2O) [µg/mL] | Conc. [1] [µg/mL] | other results
1 | CC[C@H](C)[C@H](NC(=O)CNC(=O)[C@H](Cc1ccccc1)NC(=O)[C@H](CCCNC(=N)N)NC(=O)[C@H](CCC(N)=O)NC(=O)[C@H](C)NC(=O)[C@H](CC(N)=O)NC(=O)[C@@H]1CCCN1C(=O)[C@H](CCCNC(=N)N)NC(=O)[C@H](CCCNC(=N)N)NC(=O)[C@H](CS)NC(=O)[C@H](CO)NC(=O)[C@H](CCC(N)=O)NC(=O)[C@H](CCC(=O)O)NC(=O)[C@H](CCCNC(=N)N)NC(=O)[C@H](C)N)C(=O)N[C@@H](CO)C(=O)N[C@@H](CC(N)=O)C(=O)N[C@@H](Cc1ccc(O)cc1)C(=O)N[C@@H](CS)C(=O)N[C@@H](CCC(N)=O)C(=O)N[C@H](C(=O)N[C@@H](Cc1ccc(O)cc1)C(=O)N1CCC[C@H]1C(=O)N1CCC[C@H]1C(=O)N[C@@H](CC(N)=O)C(=O)N[C@H](C(=O)N[C@@H](CC(N)=O)C(=O)N[C@@H](CCCCN)C(=O)N[C@H](C(=O)N[C@@H](CCCNC(=N)N)C(=O)N[C@@H](CCC(=O)O)C(=O)O)[C@@H](C)CC)C(C)C)[C@@H](C)CC [AllerDM1.5a] (H-AREQSCRRPNAQRFGISNYCQIYPPNVNKIRE-OH; N-terminus and C-terminus assumed) | 4700 |  | solubility in words [1]: solubility in water
2 | CC[C@H](C)[C@H](NC(=O)CNC(=O)[C@H](Cc1ccccc1)NC(=O)[C@H](CCCNC(=N)N)NC(=O)[C@H](CCC(N)=O)NC(=O)[C@H](C)NC(=O)[C@H](CC(N)=O)NC(=O)[C@@H]1CCCN1C(=O)[C@H](CCCNC(=N)N)NC(=O)[C@H](CCCNC(=N)N)NC(=O)[C@H](CS)NC(=O)[C@H](CO)NC(=O)[C@H](CCC(N)=O)NC(=O)[C@H](CCC(=O)O)NC(=O)[C@H](CCCNC(=N)N)NC(=O)[C@H](C)NC(=O)[C@@H](NC(=O)[C@H](Cc1ccc(O)cc1)NC(=O)[C@@H](N)CCCNC(=N)N)C(C)C)C(=O)N[C@@H](CO)C(=O)N[C@@H](CC(N)=O)C(=O)N[C@@H](Cc1ccc(O)cc1)C(=O)N[C@@H](CS)C(=O)N[C@@H](CCC(N)=O)C(=O)N[C@H](C(=O)N[C@@H](Cc1ccc(O)cc1)C(=O)N1CCC[C@H]1C(=O)N1CCC[C@H]1C(=O)N[C@@H](CC(N)=O)C(=O)N[C@H](C(=O)N[C@@H](CC(N)=O)C(=O)N[C@@H](CCCCN)C(=O)N[C@H](C(=O)N[C@@H](CCCNC(=N)N)C(=O)N[C@@H](CCC(=O)O)C(=O)O)[C@@H](C)CC)C(C)C)[C@@H](C)CC [AllerDM1.54] (H-RYVAREQSCRRPNAQRFGISNYCQIYPPNVNKIRE-OH; N-terminus and C-terminus assumed) | 2000 |  | solubility in words [1]: solubility in water
3 | CC[C@H](C)[C@H](NC(=O)[C@H](CCC(=O)O)NC(=O)[C@H](Cc1c[nH]cn1)NC(=O)[C@H](CC(N)=O)NC(=O)[C@H](C)NC(=O)[C@H](CS)NC(=O)[C@H](CC(=O)O)NC(=O)[C@H](CCCCN)NC(=O)[C@@H](NC(=O)[C@H](CC(=O)O)NC(=O)[C@@H](NC(=O)[C@H](CCC(N)=O)NC(=O)[C@@H](N)CC(=O)O)C(C)C)C(C)C)C(=O)N[C@@H](CCCCN)C(=O)N[C@@H](CCCCN)C(=O)N[C@H](C(=O)N[C@@H](CC(C)C)C(=O)N[C@H](C(=O)N1CCC[C@H]1C(=O)NCC(=O)N[C@@H](CS)C(=O)N[C@@H](Cc1c[nH]cn1)C(=O)NCC(=O)N[C@@H](CO)C(=O)N[C@@H](CCC(=O)O)C(=O)O)C(C)C)C(C)C [AllerDM2.3] (H-DQVDVKDCANHEIKKVLVPGCHGSE-OH; N-terminus and C-terminus assumed) | 3000 |  | 
4 | CC[C@H](C)[C@H](NC(=O)[C@H](CCC(=O)O)NC(=O)[C@H](Cc1c[nH]cn1)NC(=O)[C@H](CC(N)=O)NC(=O)[C@H](C)NC(=O)[C@H](CS)NC(=O)[C@H](CC(=O)O)NC(=O)[C@H](CCCCN)NC(=O)[C@@H](NC(=O)[C@H](CC(=O)O)NC(=O)[C@@H](NC(=O)[C@H](CCC(N)=O)NC(=O)[C@@H](N)CC(=O)O)C(C)C)C(C)C)C(=O)N[C@@H](CCCCN)C(=O)N[C@@H](CCCCN)C(=O)N[C@H](C(=O)N[C@@H](CC(C)C)C(=O)N[C@H](C(=O)N1CCC[C@H]1C(=O)NCC(=O)N[C@@H](CS)C(=O)N[C@@H](Cc1c[nH]cn1)C(=O)NCC(=O)N[C@@H](CO)C(=O)N[C@@H](CCC(=O)O)C(=O)N1CCC[C@H]1C(=O)N[C@@H](CS)C(=O)N[C@H](C(=O)N[C@H](C(=O)N[C@@H](Cc1c[nH]cn1)C(=O)N[C@@H](CCCNC(=N)N)C(=O)O)[C@@H](C)CC)[C@@H](C)CC)C(C)C)C(C)C [AllerDM2.6] (H-DQVDVKDCANHEIKKVLVPGCHGSEPCIIHR-OH; N-terminus and C-terminus assumed) | 3000 |  | 
5 | ASQHGCHGDTIPRGIEYIQHNGVVQESYYRYVAREQS [AllerDM1.53] | 4000 |  | solubility in words [1]: solubility in water
6 | ASQHGCHGDTIPRGIEYIQHNGVVQESYYRYVAREQSCRRPNAQRFGISNYCQIYPPNVNKIRE [AllerDM1.52] |  | 2300 | effect of denaturing salts on IgE binding (Der p 1 competition ELISA) [2]: strongly diminished IgE binding; IgE binding in competition ELISA (Der p 1) [2]: still bound IgE; solubility in words [1]: solubility in water
7 | HGSEPCIIHRGKPFQLEALFEANQNSKTAKIEIKASIDGLEVDVPGIDPNACHYMK (cysteines drawn unpaired) [AllerDM2.4] |  | 4200 | 
8 | HYMKCPLVKGQQYDIKYTWNVPKIAPKSENVVVTVKVLGDNGVLACAIATHAKIRD (cysteines drawn unpaired) [AllerDM2.5] | 1500 |  | 
9 | KVLGDNGVLACAIATHAKIRD [AllerDM2.9] | 1000 |  | 
10 | KYTWNVPKIAPKSENVVVTVKVLGDNGVLACAIATHAKIRD [AllerDM2.8] | 3500 |  | 
11 | LAEQELVDCASQHGCHGDTIPRGIEYIQHNGVVQESYYRYVAREQSCRRPNAQRFGISNYCQIYPPNVNKIRE [AllerDM1.5] |  | 1700 | IgE binding in competition ELISA (Der p 1) [2]: responsible for the reactivity; solubility in words [1]: solubility in water
12 | PNVNKIREALAQTHSAIAVIIGIKDLDAFRHYDGR [AllerDM1.63] | 2000 |  | 
13 | PNVNKIREALAQTHSAIAVIIGIKDLDAFRHYDGRTIIQRDNGYQPNYHAVNIVGYSNAQGVD [AllerDM1.62] |  | 2500 | effect of denaturing salts on IgE binding (Der p 1 competition ELISA) [2]: strongly diminished IgE binding; IgE binding in competition ELISA (Der p 1) [2]: residual IgE binding
14 | PNVNKIREALAQTHSAIAVIIGIKDLDAFRHYDGRTIIQRDNGYQPNYHAVNIVGYSNAQGVDYWIVRNSWDT [AllerDM1.6] |  | 800 | IgE binding in competition ELISA (Der p 1) [2]: responsible for the reactivity
15 | RHYDGRTIIQRDNGYQPNYHAVNIVGYSNAQGVD [AllerDM1.64] | 4000 |  | 
16 | SIDGLEVDVPGIDPNACHYMKCPLVKGQQYDIKYTWNVPKIAPKSENVVVTVKVLGD (cysteines drawn unpaired) [AllerDM2.10] |  |  | Conc. ([1]; H2O after acidification with HCl and neutralization with NaOH): 2000 µg/mL
17 | B1 |  | 2000 | IgE binding in competition ELISA (Der p 1) [2]: Residual IgE binding was observed
18 | B2 |  |  | Conc. ([1]; H2O after addition of HCl and NaOH and citrate buffer pH5.5): 1000 µg/mL
